From US11078198B2 (BRISTOL-MYERS SQUIBB COMPANY, priority 2017, dated 2021)

These compounds were tested against T1, human FXR (Homo sapiens, UniProt Q96RI1) (assay: transient human FXR/Gal4-luciferase reporter assay). Details: Gal4-hFXR transfected HEK293 reporter cells; relative to 8 μM GW-4064.
T1 construct: expressed in transfected cells; host or cells: HEK293 cells stably carrying a 5xGal4-response-element firefly luciferase reporter, transiently transfected with pcDNA3.1-Gal4-FXR
T1 sequence (Q96RI1 262-486 limits assumed): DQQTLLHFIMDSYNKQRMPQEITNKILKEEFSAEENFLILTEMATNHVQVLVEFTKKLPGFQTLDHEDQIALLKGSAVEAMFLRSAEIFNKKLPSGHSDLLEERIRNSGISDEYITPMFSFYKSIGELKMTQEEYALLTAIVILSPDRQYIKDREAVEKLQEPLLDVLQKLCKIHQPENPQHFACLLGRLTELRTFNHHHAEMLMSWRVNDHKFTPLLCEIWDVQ
Format: cell-based
In short: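 Transient Gal4-hFXR LBD fusion (pcDNA3.1, Lipofectamine, overnight) expressed in a HEK293 reporter line stably bearing five Gal4 elements upstream of firefly luciferase, grown in charcoal/dextran-stripped FBS. Compound dilutions in DMSO incubated with cells overnight at 37° C, 5% CO2, before luciferase readout.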

| EC50 | SMILES |
| --- | --- |
| 319 nM | O=C(O)c1cc(F)c2nc(N3CCC4(C=C(c5c(-c6cccnc6C(F)(F)F)noc5C5CC5)C4)CC3)sc2c1 [Example 138, 2-(2-(5-Cyclopropyl-3-(2-(trifluoromethyl)pyridin-3-yl)isoxazol-4-yl)-7-azaspiro[3.5]non-1-en-7-yl)-4-fluorobenzo[d]thiazole-6-carboxylic acid] |
| 482 nM | O=C(O)c1cc(F)c2nc(N3CCC4(C=C(c5c(-c6cnccc6C(F)(F)F)noc5C5CC5)C4)CC3)sc2c1 [Example 139, 2-(2-(5-Cyclopropyl-3-(4-(trifluoromethyl)pyridin-3-yl)isoxazol-4-yl)-7-azaspiro[3.5]non-1-en-7-yl)-4-fluorobenzo[d]thiazole-6-carboxylic acid] |
| 133 nM | O=C(O)c1ccc2nc(N3CCC4(C=C(c5c(-c6ccccc6OC(F)(F)F)noc5C5CC5)C4)CC3)ccc2c1 [Example 140, 2-(2-(5-Cyclopropyl-3-(2-(trifluoromethoxy)phenyl)isoxazol-4-yl)-7-azaspiro[3.5]non-1-en-7-yl)quinoline-6-carboxylic acid] |
| 142 nM | Cn1cc(C(=O)O)c2ccc(N3CCC4(C=C(c5c(-c6ccccc6C(F)(F)F)noc5C5CC5)C4)CC3)cc21 [Example 141, 6-(2-(5-Cyclopropyl-3-(2-(trifluoromethyl)phenyl)isoxazol-4-yl)-7-azaspiro[3.5]non-1-en-7-yl)-1-methyl-1H-indole-3-carboxylic acid] |
| 147 nM | O=C(O)c1cc(OCCO)c2cc(N3CCC4(C=C(c5c(-c6c(Cl)cncc6Cl)noc5C5CC5)C4)CC3)ccc2n1 [Example 142, 6-(2-(5-Cyclopropyl-3-(3,5-dichloropyridin-4-yl)isoxazol-4-yl)-7-azaspiro[3.5]non-1-en-7-yl)-4-(2-hydroxyethoxy)quinoline-2-carboxylic acid] |
| 159 nM | O=C(O)c1cc(OCCO)c2cc(N3CCC4(C=C(c5c(-c6ccccc6C(F)(F)F)noc5C5CC5)C4)CC3)ccc2n1 [Example 143, 6-(2-(5-Cyclopropyl-3-(2-(trifluoromethyl)phenyl)isoxazol-4-yl)-7-azaspiro[3.5]non-1-en-7-yl)-4-(2-hydroxyethoxy)quinoline-2-carboxylic acid] |
| 156 nM | COc1cc(C(=O)O)nc2ccc(N3CCC4(C=C(c5c(-c6cccnc6C(F)(F)F)noc5C5CC5)C4)CC3)cc12 [Example 144, 6-(2-(5-Cyclopropyl-3-(2-(trifluoromethyl)pyridin-3-yl)isoxazol-4-yl)-7-azaspiro[3.5]non-1-en-7-yl)-4-methoxyquinoline-2-carboxylic acid] |
| 160 nM | COc1cc(C(=O)O)nc2ccc(N3CCC4(C=C(c5c(-c6ncccc6Cl)noc5C5CC5)C4)CC3)cc12 [Example 145, 6-(2-(3-(3-Chloropyridin-2-yl)-5-cyclopropylisoxazol-4-yl)-7-azaspiro[3.5]non-1-en-7-yl)-4-methoxyquinoline-2-carboxylic acid] |
| 185 nM | COc1cc(C(=O)O)nc2ccc(N3CCC4(C=C(c5c(-c6cnccc6C(F)(F)F)noc5C5CC5)C4)CC3)cc12 [Example 146, 6-(2-(5-Cyclopropyl-3-(4-(trifluoromethyl)pyridin-3-yl)isoxazol-4-yl)-7-azaspiro[3.5]non-1-en-7-yl)-4-methoxyquinoline-2-carboxylic acid] |
| 1060 nM | COc1cc(C(=O)O)nc2ccc(N3CCC4(C=C(c5c(C6CCCCC6)noc5C5CC5)C4)CC3)cc12 [Example 147, 6-(2-(3-Cyclohexyl-5-cyclopropylisoxazol-4-yl)-7-azaspiro[3.5]non-1-en-7-yl)-4-methoxyquinoline-2-carboxylic acid] |
| 548 nM | CC(C)c1onc(-c2c(Cl)cccc2Cl)c1C1=CC2(CCN(c3ccc4cc(C(=O)O)nnc4c3)CC2)C1 [Example 148, 7-(2-(3-(2,6-Dichlorophenyl)-5-isopropylisoxazol-4-yl)-7-azaspiro[3.5]non-1-en-7-yl) cinnoline-3-carboxylic acid] |
| 4350 nM | O=C(O)c1ccc2cc(N3CCC4(C=C(c5c(-c6ccncc6Cl)noc5C5CC5)C4)CC3)ccc2n1 [Example 150, 6-(2-(3-(3-Chloropyridin-4-yl)-5-cyclopropylisoxazol-4-yl)-7-azaspiro[3.5]non-1-en-7-yl)quinoline-2-carboxylic acid] |
| 1990 nM | O=C(O)c1ccc2cc(N3CCC4(C=C(c5c(-c6c(F)cccc6F)noc5C5CC5)C4)CC3)ccc2n1 [Example 151, 6-(2-(5-Cyclopropyl-3-(2,6-difluorophenyl)isoxazol-4-yl)-7-azaspiro[3.5]non-1-en-7-yl)quinoline-2-carboxylic acid] |
| 1630 nM | O=C(O)c1ccc2cc(N3CCC4(C=C(c5c(-c6ncccc6Cl)noc5C5CC5)C4)CC3)ccc2n1 [Example 152, 6-(2-(3-(3-Chloropyridin-2-yl)-5-cyclopropylisoxazol-4-yl)-7-azaspiro[3.5]non-1-en-7-yl)quinoline-2-carboxylic acid] |
| 1280 nM | O=C(O)c1ccc2cc(N3CCC4(C=C(c5c(-c6cccnc6C(F)(F)F)noc5C5CC5)C4)CC3)ccc2n1 [Example 153, 6-(2-(5-Cyclopropyl-3-(2-(trifluoromethyl)pyridin-3-yl)isoxazol-4-yl)-7-azaspiro[3.5]non-1-en-7-yl)quinoline-2-carboxylic acid] |
| 554 nM | O=C(O)c1ccc2cc(N3CCC4(C=C(c5c(-c6cnccc6C(F)(F)F)noc5C5CC5)C4)CC3)ccc2n1 [Example 154, 6-(2-(5-Cyclopropyl-3-(4-(trifluoromethyl)pyridin-3-yl)isoxazol-4-yl)-7-azaspiro[3.5]non-1-en-7-yl)quinoline-2-carboxylic acid] |
| 326 nM | O=C(O)c1ccc2cc(N3CCC4(C=C(c5c(-c6c(F)cccc6Cl)noc5C5CC5)C4)CC3)ccc2n1 [Example 156, 6-(2-(3-(2-Chloro-6-fluorophenyl)-5-cyclopropylisoxazol-4-yl)-7-azaspiro[3.5]non-1-en-7-yl)quinoline-2-carboxylic acid] |
| 223 nM | Cc1cccc(Cl)c1-c1noc(C2CC2)c1C1=CC2(CCN(c3ccc4nc(C(=O)O)ccc4c3)CC2)C1 [Example 157, 6-(2-(3-(2-Chloro-6-methylphenyl)-5-cyclopropylisoxazol-4-yl)-7-azaspiro[3.5]non-1-en-7-yl)quinoline-2-carboxylic acid] |
| 459 nM | O=C(O)c1cc2ccc(N3CCC4(C=C(c5c(-c6c(F)cccc6Cl)noc5C5CC5)C4)CC3)cc2cn1 [Example 158, 7-(2-(3-(2-Chloro-6-fluorophenyl)-5-cyclopropylisoxazol-4-yl)-7-azaspiro[3.5]non-1-en-7-yl)isoquinoline-3-carboxylic acid] |
| 254 nM | O=C(O)c1cc2ccc(N3CCC4(C=C(c5c(-c6ccccc6C(F)(F)F)noc5C5CC5)C4)CC3)cc2cn1 [Example 159, 7-(2-(5-Cyclopropyl-3-(2-(trifluoromethyl)phenyl)isoxazol-4-yl)-7-azaspiro[3.5]non-1-en-7-yl)isoquinoline-3-carboxylic acid] |
| 1610 nM | O=C(O)c1cc2ccc(N3CCC4(C=C(c5c(-c6cnccc6C(F)(F)F)noc5C5CC5)C4)CC3)cc2cn1 [Example 160, 7-(2-(5-Cyclopropyl-3-(4-(trifluoromethyl)pyridin-3-yl)isoxazol-4-yl)-7-azaspiro[3.5]non-1-en-7-yl)isoquinoline-3-carboxylic acid] |
| 2320 nM | O=C(O)c1cc2ccc(N3CCC4(C=C(c5c(-c6ncccc6Cl)noc5C5CC5)C4)CC3)cc2cn1 [Example 161, 7-(2-(3-(3-Chloropyridin-2-yl)-5-cyclopropylisoxazol-4-yl)-7-azaspiro[3.5]non-1-en-7-yl) isoquinoline-3-carboxylic acid] |
| 2820 nM | O=C(O)c1cc2ccc(N3CCC4(C=C(c5c(-c6c(F)cccc6F)noc5C5CC5)C4)CC3)cc2cn1 [Example 162, 7-(2-(5-Cyclopropyl-3-(2,6-difluorophenyl)isoxazol-4-yl)-7-azaspiro[3.5]non-1-en-7-yl)isoquinoline-3-carboxylic acid] |
| 344 nM | O=C(O)c1cnc(N2CCC3(C=C(c4c(-c5ccccc5C(F)(F)F)noc4C4CC4)C3)CC2)cc1C(F)(F)F [Example 163, 6-(2-(5-Cyclopropyl-3-(2-(trifluoromethyl)phenyl)isoxazol-4-yl)-7-azaspiro[3.5]non-1-en-7-yl)-4-(trifluoromethyl)nicotinic acid] |
| 392 nM | Cn1nc(C(=O)O)c2ccc(N3CCC4(C=C(c5c(-c6ccccc6C(F)(F)F)noc5C5CC5)C4)CC3)cc21 [Example 164, 6-(2-(5-Cyclopropyl-3-(2-(trifluoromethyl)phenyl)isoxazol-4-yl)-7-azaspiro[3.5]non-1-en-7-yl)-1-methyl-1H-indazole-3-carboxylic acid] |
| 2980 nM | Cn1nc(C(=O)O)c2ccc(N3CCC4(C=C(c5c(-c6ccccc6OC(F)(F)F)noc5C5CC5)C4)CC3)cc21 [Example 165, 6-(2-(5-Cyclopropyl-3-(2-(trifluoromethoxy)phenyl)isoxazol-4-yl)-7-azaspiro[3.5]non-1-en-7-yl)-1-methyl-1H-indazole-3-carboxylic acid] |
| 494 nM | O=C(O)c1nc(C(F)(F)F)n2cc(N3CCC4(C=C(c5c(-c6ccccc6OC(F)(F)F)noc5C5CC5)C4)CC3)ccc12 [Example 166, 6-(2-(5-Cyclopropyl-3-(2-(trifluoromethoxy)phenyl)isoxazol-4-yl)-7-azaspiro[3.5]non-1-en-7-yl)-3-(trifluoromethyl)imidazo[1,5-a]pyridine-1-carboxylic acid] |
| 3100 nM | CCOc1cc(C(=O)O)nc2ccc(N3CCC4(C=C(c5c(C6CCCCC6)noc5C5CC5)C4)CC3)cc12 [Example 167, 6-(2-(3-Cyclohexyl-5-cyclopropylisoxazol-4-yl)-7-azaspiro[3.5]non-1-en-7-yl)-4-ethoxyquinoline-2-carboxylic acid] |
